The record followed here is ChEMBL document CHEMBL1137822 (J Med Chem, 2004).

A word on the IC50: it is the concentration at which inhibition is half-maximal. Lower therefore signals greater potency in that assay.

For one assay, the target named is Acetylcholinesterase (Homo sapiens, UniProt P22303). Kind of assay: Inhibitory concentration against human serum acetylcholinesterase activity.
Another assay addresses Cholinesterase (Homo sapiens, UniProt P06276). Briefly: Inhibitory concentration against human serum butyrylcholinesterase activity.

Cholinesterase, sequence (P06276 whole entry): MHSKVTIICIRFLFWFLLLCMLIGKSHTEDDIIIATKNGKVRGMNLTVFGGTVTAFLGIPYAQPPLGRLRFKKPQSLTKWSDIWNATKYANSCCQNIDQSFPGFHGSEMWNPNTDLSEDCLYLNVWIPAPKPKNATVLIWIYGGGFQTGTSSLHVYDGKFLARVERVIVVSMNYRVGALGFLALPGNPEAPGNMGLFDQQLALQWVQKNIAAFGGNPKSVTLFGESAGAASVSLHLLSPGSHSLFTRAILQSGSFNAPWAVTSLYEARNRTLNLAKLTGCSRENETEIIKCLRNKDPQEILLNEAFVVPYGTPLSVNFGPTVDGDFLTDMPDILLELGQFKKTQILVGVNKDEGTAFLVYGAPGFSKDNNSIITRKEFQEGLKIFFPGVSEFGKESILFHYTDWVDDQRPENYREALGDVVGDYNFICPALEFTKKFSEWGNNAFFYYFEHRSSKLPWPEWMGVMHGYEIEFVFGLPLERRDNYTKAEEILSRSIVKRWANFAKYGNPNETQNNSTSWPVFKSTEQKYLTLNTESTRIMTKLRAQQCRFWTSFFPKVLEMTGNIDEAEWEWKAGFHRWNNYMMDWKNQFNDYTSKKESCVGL
Acetylcholinesterase, sequence (P22303 whole entry): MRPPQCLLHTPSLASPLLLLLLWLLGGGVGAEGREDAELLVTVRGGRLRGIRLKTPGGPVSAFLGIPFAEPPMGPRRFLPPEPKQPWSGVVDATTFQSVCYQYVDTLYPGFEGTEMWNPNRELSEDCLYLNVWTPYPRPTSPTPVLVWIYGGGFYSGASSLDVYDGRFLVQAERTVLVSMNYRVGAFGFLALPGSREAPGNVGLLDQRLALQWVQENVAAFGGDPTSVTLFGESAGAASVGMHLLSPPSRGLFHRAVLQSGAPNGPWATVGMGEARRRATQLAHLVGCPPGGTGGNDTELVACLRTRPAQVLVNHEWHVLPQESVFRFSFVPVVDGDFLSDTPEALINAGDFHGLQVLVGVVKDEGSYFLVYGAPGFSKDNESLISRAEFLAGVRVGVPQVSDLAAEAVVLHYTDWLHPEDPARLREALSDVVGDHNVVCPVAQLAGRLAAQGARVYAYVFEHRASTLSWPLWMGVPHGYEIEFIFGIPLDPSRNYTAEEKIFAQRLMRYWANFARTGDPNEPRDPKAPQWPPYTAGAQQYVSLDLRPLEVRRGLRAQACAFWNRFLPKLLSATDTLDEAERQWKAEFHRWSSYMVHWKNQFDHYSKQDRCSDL

Regarding `CCNC(=O)Oc1cccc2c1OCC1CCN(C)C21` (centres undefined), the IC50 came out at 0.42 µM against Acetylcholinesterase and 0.0444 µM on Cholinesterase. The matching figures for `CCCCCCCNC(=O)Oc1cccc2c1OCC1CCN(C)C21` (centres undefined): 0.0203 µM and 0.00126 µM. Turning to `CNC(=O)Oc1cccc(C(C)N(C)C)c1` (centres undefined), the IC50 on Cholinesterase was 0.406 µM. Regarding `CNC(=O)Oc1cccc2c1OCC1CCN(C)C21` (centres undefined), the IC50 against Acetylcholinesterase was determined as 0.03 µM; against Cholinesterase it was 0.0594 µM. For the compound `CNC(=O)Oc1cccc2c1CCC1CCN(C)C21` (centres undefined), the concentration for half-maximal inhibition (IC50) on Acetylcholinesterase was determined as 0.0173 µM; against Cholinesterase, 0.0245 µM. In the same order, the values of `CNC(=O)Oc1cccc2c1SCC1CCN(C)C21` (centres undefined) are 0.00811 µM and 0.0105 µM. Consider `CCNC(=O)Oc1cccc2c1CCC1CCN(C)C21` (centres undefined), for which the values for the IC50 against Acetylcholinesterase and on Cholinesterase were 0.393 µM and 0.0303 µM, respectively. Regarding `CC(NC(=O)Oc1cccc2c1OCC1CCN(C)C21)c1ccccc1` (centres undefined), half-maximal inhibition on Cholinesterase (IC50) was put at 0.209 µM.
